Assay results as given in article PMC7438494 (Communications Biology, 2020).
“And” between values parts separate entries of the source, which are not always exact repeats. Equal entries are not always repeated. Where two headings read alike, the source gives them in different places.

Target: human ATP synthase (Homo sapiens, UniProt P00846+P05496)
Experiment: biochemical
Assay type: biochemical
Conditions: for cyanide sensitive ATP produced, nmol/min/mg / cyanide sensitive ATP produced, pmol/min/mg: 60 min
[1] = BDQ 5e-6 uM, […], frozen human mito, BDQ in DMSO
[2] = BDQ 5e-6 uM, cyanide sensitive, frozen human mito, BDQ in DMSO
[3] = BDQ 5e-5 uM, […], frozen human mito, BDQ in DMSO
[4] = BDQ 5e-5 uM, cyanide sensitive, frozen human mito, BDQ in DMSO
[5] = BDQ 0.0005 uM, […], frozen human mito, BDQ in DMSO
[6] = BDQ 0.0005 uM, cyanide sensitive, frozen human mito, BDQ in DMSO
[7] = BDQ 0.0005 uM, cyanide sensitive, human
[8] = BDQ 0.005 uM, […], frozen human mito, BDQ in DMSO
[9] = BDQ 0.005 uM, cyanide sensitive, frozen human mito, BDQ in DMSO
[10] = BDQ 0.005 uM, cyanide sensitive, human
[11] = BDQ 0.05 uM, cyanide sensitive, human
[12] = BDQ 0.1 uM, […], frozen human mito, BDQ in DMSO
[13] = BDQ 0.1 uM, cyanide sensitive, frozen human mito, BDQ in DMSO
[14] = BDQ 0.1 uM, cyanide sensitive, human
[15] = BDQ 0.2 uM, […], frozen human mito, BDQ in DMSO
[16] = BDQ 0.2 uM, cyanide sensitive, frozen human mito, BDQ in DMSO
[17] = BDQ 0.2 uM, cyanide sensitive, human
[18] = BDQ 0.5 uM, […], frozen human mito, BDQ in DMSO
[19] = BDQ 0.5 uM, cyanide sensitive, frozen human mito, BDQ in DMSO

Compound: COc1nc2ccc(Br)cc2cc1[C@@H](c1ccccc1)[C@@](O)(CCN(C)C)c1cccc2ccccc12 [BDQ, Bedaquiline]
- ATP synthesis: 7.2 nmol/min/mg
- inhibition at 0.85 µM: 46%
- % activity, cyanide sensitive [1]: 78.2096%
- % inhibition, cyanide sensitive [1]: 21.7904%
- ATP produced, nmol/min/mg [1]: 6.85 nmol/min/mg
- ATP produced, pmol/min/mg [1]: 6850.84 pmol/min/mg
- cyanide sensitive ATP produced, nmol/min/mg [2]: 5.63 nmol/min/mg
- cyanide sensitive ATP produced, pmol/min/mg [2]: 5632.76 pmol/min/mg
- Cyanide sensitive ATP synthesis (BDQ 5e-6 uM, cyanide sensitive, human): 6.1 nmol/min/mg and 8.3 nmol/min/mg
- % activity, cyanide sensitive [3]: 74.3127%
- % inhibition, cyanide sensitive [3]: 25.6873%
- ATP produced, nmol/min/mg [3]: 6.57 nmol/min/mg
- ATP produced, pmol/min/mg [3]: 6570.19 pmol/min/mg
- cyanide sensitive ATP produced, nmol/min/mg [4]: 5.35 nmol/min/mg
- cyanide sensitive ATP produced, pmol/min/mg [4]: 5352.10 pmol/min/mg
- Cyanide sensitive ATP synthesis (BDQ 5e-5 uM, cyanide sensitive, human): 5.6 nmol/min/mg and 8.1 nmol/min/mg
- % activity [5]: 84.5005%
- % inhibition [5]: 15.4995%
- ATP produced, nmol/min/mg [5]: 7.12 nmol/min/mg
- ATP produced, pmol/min/mg [5]: 7115.12 pmol/min/mg
- activity at 0.0005 µM (BDQ 0.0005 uM, […], frozen human mito, BDQ in DMSO, read-out: % activity): 84.5%
- activity at 0.0005 µM (BDQ 0.0005 uM, […], frozen human mito, BDQ in DMSO, read-out: % activity, cyanide sensitive): 81.9%
- inhibition at 0.0005 µM (BDQ 0.0005 uM, […], frozen human mito, BDQ in DMSO, read-out: % inhibition): 15.5%
- inhibition at 0.0005 µM (BDQ 0.0005 uM, […], frozen human mito, BDQ in DMSO, read-out: % inhibition, cyanide sensitive): 18.1%
- cyanide sensitive ATP produced, nmol/min/mg [6]: 5.90 nmol/min/mg
- cyanide sensitive ATP produced, pmol/min/mg [6]: 5897.03 pmol/min/mg
- Cyanide sensitive ATP synthesis [7]: 7.7 nmol/min/mg and 4.7 nmol/min/mg and 7.8 nmol/min/mg
- cyanide sensitive % activity [7]: 71.1%
- activity at 0.0005 µM (BDQ 0.0005 uM, cyanide sensitive, human, read-out: cyanide sensitive % activity): 81.5%
- inhibition at 0.0005 µM (BDQ 0.0005 uM, cyanide sensitive, human, read-out: cyanide sensitive % inhibition): 18.5%
- % activity [8]: 99.3902%
- % inhibition [8]: 0.6098%
- ATP produced, nmol/min/mg [8]: 8.37 nmol/min/mg
- ATP produced, pmol/min/mg [8]: 8368.87 pmol/min/mg
- activity at 0.005 µM (BDQ 0.005 uM, […], frozen human mito, BDQ in DMSO, read-out: % activity): 99.4%
- activity at 0.005 µM (BDQ 0.005 uM, […], frozen human mito, BDQ in DMSO, read-out: % activity, cyanide sensitive): 99.3%
- inhibition at 0.005 µM (BDQ 0.005 uM, […], frozen human mito, BDQ in DMSO, read-out: % inhibition): 0.6%
- inhibition at 0.005 µM (BDQ 0.005 uM, […], frozen human mito, BDQ in DMSO, read-out: % inhibition, cyanide sensitive): 0.713%
- cyanide sensitive ATP produced, nmol/min/mg [9]: 7.15 nmol/min/mg
- cyanide sensitive ATP produced, pmol/min/mg [9]: 7150.78 pmol/min/mg
- Cyanide sensitive ATP synthesis [10]: 8.3 nmol/min/mg and 4.6 nmol/min/mg and 7.9 nmol/min/mg
- cyanide sensitive % activity [10]: 72.3%
- activity at 0.005 µM (BDQ 0.005 uM, cyanide sensitive, human, read-out: cyanide sensitive % activity): 88.5%
- Cyanide sensitive ATP synthesis [11]: 6.8 nmol/min/mg and 4.7 nmol/min/mg and 3.8 nmol/min/mg
- cyanide sensitive % activity [11]: 71.8% and 64.1% and 43.8%
- cyanide sensitive % inhibition [11]: 28.2% and 35.9% and 56.2%
- % activity [12]: 65.6953%
- % inhibition [12]: 34.3047%
- ATP produced, nmol/min/mg [12]: 5.53 nmol/min/mg
- ATP produced, pmol/min/mg [12]: 5531.68 pmol/min/mg
- activity at 0.1 µM (BDQ 0.1 uM, […], frozen human mito, BDQ in DMSO, read-out: % activity): 65.7%
- activity at 0.1 µM (BDQ 0.1 uM, […], frozen human mito, BDQ in DMSO, read-out: % activity, cyanide sensitive): 59.9%
- inhibition at 0.1 µM (BDQ 0.1 uM, […], frozen human mito, BDQ in DMSO, read-out: % inhibition): 34.3%
- inhibition at 0.1 µM (BDQ 0.1 uM, […], frozen human mito, BDQ in DMSO, read-out: % inhibition, cyanide sensitive): 40.1%
- cyanide sensitive ATP produced, nmol/min/mg [13]: 4.31 nmol/min/mg
- cyanide sensitive ATP produced, pmol/min/mg [13]: 4313.60 pmol/min/mg
- Cyanide sensitive ATP synthesis [14]: 8.1 nmol/min/mg and 6.1 nmol/min/mg and 5.4 nmol/min/mg and 6.3 nmol/min/mg and 7.4 nmol/min/mg
- cyanide sensitive % activity [14]: 86.0% and 84.3% and 62.0% and 71.2% and 67.2%
- % activity [15]: 69.7127%
- % inhibition [15]: 30.2873%
- ATP produced, nmol/min/mg [15]: 5.87 nmol/min/mg
- ATP produced, pmol/min/mg [15]: 5869.95 pmol/min/mg
- activity at 0.2 µM (BDQ 0.2 uM, […], frozen human mito, BDQ in DMSO, read-out: % activity): 69.7%
- activity at 0.2 µM (BDQ 0.2 uM, […], frozen human mito, BDQ in DMSO, read-out: % activity, cyanide sensitive): 64.6%
- inhibition at 0.2 µM (BDQ 0.2 uM, […], frozen human mito, BDQ in DMSO, read-out: % inhibition): 30.3%
- inhibition at 0.2 µM (BDQ 0.2 uM, […], frozen human mito, BDQ in DMSO, read-out: % inhibition, cyanide sensitive): 35.4%
- cyanide sensitive ATP produced, nmol/min/mg [16]: 4.65 nmol/min/mg
- cyanide sensitive ATP produced, pmol/min/mg [16]: 4651.87 pmol/min/mg
- Cyanide sensitive ATP synthesis [17]: 5.6 nmol/min/mg and 4.0 nmol/min/mg and 5.2 nmol/min/mg and 4.4 nmol/min/mg and 5.1 nmol/min/mg
- cyanide sensitive % activity [17]: 55.4% and 59.9% and 49.8% and 46.9%
- cyanide sensitive % inhibition [17]: 44.6% and 40.1% and 50.2% and 53.1%
- activity at 0.2 µM (BDQ 0.2 uM, cyanide sensitive, human, read-out: cyanide sensitive % activity): 59.5%
- inhibition at 0.2 µM (BDQ 0.2 uM, cyanide sensitive, human, read-out: cyanide sensitive % inhibition): 40.5%
- % activity [18]: 36.7347%
- % inhibition [18]: 63.2653%
- ATP produced, nmol/min/mg [18]: 3.09 nmol/min/mg
- ATP produced, pmol/min/mg [18]: 3093.14 pmol/min/mg
- activity at 0.5 µM (BDQ 0.5 uM, […], frozen human mito, BDQ in DMSO, read-out: % activity): 36.7%
- activity at 0.5 µM (BDQ 0.5 uM, […], frozen human mito, BDQ in DMSO, read-out: % activity, cyanide sensitive): 26%
- inhibition at 0.5 µM (BDQ 0.5 uM, […], frozen human mito, BDQ in DMSO, read-out: % inhibition): 63.3%
- inhibition at 0.5 µM (BDQ 0.5 uM, […], frozen human mito, BDQ in DMSO, read-out: % inhibition, cyanide sensitive): 74%
- cyanide sensitive ATP produced, nmol/min/mg [19]: 1.88 nmol/min/mg
- cyanide sensitive ATP produced, pmol/min/mg [19]: 1875.05 pmol/min/mg
